Assay results published in patent US20140309419A1, “METHOD FOR ENHANCING THE THERMAL STABILITY OF IONIC COMPOUNDS” (Danmarks Tekniske Universite, priority 2011, published 2014).
Marks after values point to notes of the source that are not given here.

Tests used:
[1] = Thermal stability by TGA, inflection point method (TA2950 TGA, 5° C./min, dried air); type: physicochemical; conditions: not supported/neat
Description: (§1) The term “upper operating temperature” as used herein refers to the highest temperature to which the ionic compound can be heated without undergoing thermal degradation. This temperature is usually and routinely measured by Thermo Gravimetric Analysis (TGA) and/or Differential Scanning calorimetry (DSC).

[2] = Thermal stability by TGA, supported vs. unsupported, evaluation method not marked
Method: To test for such influence, adsorption experiments with butylmethylimidazolium acetate [BMIM][OAc] on four different porous silica types was carried out (FIG. 7a, 7b). The silicas had the following pore diameters: PG2000 (pore diameter 2000 Å), PG500 (pore diameter 500 Å), PG75 (pore diameter 75 Å) and MCM-41 (pore diameter 50 Å).
The silicas had the following pore diameters: PG2000 (pore diameter 2000 Å), PG500 (pore diameter 500 Å) and PG75 (pore diameter 75 Å).
Thermal stability was measured by using thermogravimetric analysis (TGA), with isocratic heating at 5° C. min^−1 under an inert nitrogen and/or dried air atmosphere. The decomposition temperatures were determined from both the T5% onset (onset temperature for 5% decomposition) in an isocratic TGA experiment, and from the inflection point (temperature at the inflection point of TGA curve, which indicates the point where the degradation rate is maximum). For T5% onset measurements, thermal stability was determined in a Mettler-Toledo Star^e TGA/DSC unit by heating from 25° C. to 800° C. with a heating rate of 5° C./min under nitrogen. For inflection point measurements, thermal stability was determined using a TA2950 TGA unit by heating from 25° C. to 800° C. with a heating rate of 5° C./min under dried air.

[3] = Thermal stability by TGA, T5% onset method (Mettler-Toledo TGA/DSC, 5° C./min, nitrogen); type: physicochemical; conditions: not supported/neat
Description: as §1

[4] = 10% (wt/wt) on PG75 silica (pore diameter 75 Å)
[5] = 10% (wt/wt) on PG500 silica (pore diameter 500 Å)
[6] = 10% (wt/wt) on PG2000 silica (pore diameter 2000 Å)

Row | SMILES | Thermal Stability (inflection point) [1] | enhancement of thermal stability vs. unsupported [2, 4] | enhancement of thermal stability vs. unsupported [2, 5] | enhancement of thermal stability vs. unsupported [2, 6] | other results
1 | CCCCCCCCCCCCCCCC[N+](C)(C)C.Nc1nc2c(ncn2COCCO)c(=O)[n-]1 [Trimethylhexadecylammonium acyclovir [2], Trimethylhexadecylammonium Acyclovir] | 188.60^b ° C. | – | – | – | –
2 | CC[N+](CC)(CC)CC.O=C(O)CNCP(=O)([O-])O [Tetraethylammonium Glyphosate [5], Tetraethylammonium Glyphosate] | 149.76^b ° C. | – | – | – | –
3 | CCCCC(CC)COC(=O)CC(C(=O)OCC(CC)CCCC)S(=O)(=O)O (centres unmarked) [Dioctylsulfosuccinic Acid [3], Dioctylsulfosuccinic Acid] | 161.86^b ° C. | – | – | – | –
4 | CCCCn1cc[n+](C)c1.[Cl-] [[BMIM][Cl], butylmethylimidazolium chloride] | – | no enhancement of thermal stability | no enhancement of thermal stability | no enhancement of thermal stability | –
5 | CC(C)Cc1ccc(C(C)C(=O)O)cc1 (centres unmarked) [Ibuprofene (free acid), Ibuprofene] | – | – | – | – | Thermal Stability (T5% onset) [3]: 154.7^a ° C.
6 | CC(=O)[O-].CCCCn1cc[n+](C)c1 [[BMIM][OAc], butylmethylimidazolium acetate] | – | significant enhancement of the thermal stability | no enhancement of thermal stability | no enhancement of thermal stability | enhancement of thermal stability vs. unsupported ([2]; 10% (wt/wt) on MCM-41 silica (pore diameter 50 Å)): significant enhancement of the thermal stability
